How the values were obtained:
whole cells [1] = test: Metabolic oxidation-reduction indicator dye (Alamar Blue) assay of whole cells (general description); assay type: cell-based; details: at a less than fully cytotoxic concentration
Text: (§1) The effect of test compounds on ATP synthase activity of whole cells can also optionally be assayed using any membrane potential indicator dye or metabolic oxidation-reduction indicator dye known in the art. See Loew, Chapter 8 in Biomembrane Electrochemistry, Blank and Vodyanoy, eds., American Chemical Society, Washington, DC (1994), pages 151-173. Particularly preferred dyes are membrane potential dyes such as DiOC6(3), JC-1, rhodamine 123, or MitoTracker® reduced dyes [Molecular Probes, Eugene, Oreg.]. […] Other preferred dyes are metabolic oxidation-reduction indicator dyes such as Alamar Blue™ [AccuMed Int'l, Westlake, Ohio]. […] See U.S. Provisional Application Ser. No. 60/143,290 filed Jul. 12, 1999 and corresponding co-owned, concurrently filed U.S. application Ser. No. 09/543,955, both of which are incorporated herein by reference and U.S. Provisional Application Ser. No. 60/143,485 filed Jul. 12, 1999 and corresponding U.S. application Ser. No. 09/404,926 filed Sep. 24, 1999 and International Application No. PCT/US99/22361 filed Sep. 24, 1999, all of which are incorporated herein by reference. Iterative screening for compound selection may employ one or combination of assays for testing.

E. coli O111:B4 [2] = test: In vitro bactericidal activity; assay type: cell-based
E. coli = test: Metabolic oxidation-reduction indicator dye Alamar Blue assay; assay type: cell-based
Procedure: (§2) The effect of antibacterial BPI protein products on the activity of bacterial ATP synthase as measured by a metabolic oxidation-reduction indicator dye and a membrane potential indicator dye was determined as described in Example 2 of U.S. Provisional Application Ser. No. 60/143,290 filed Jul. 12, 1999 and corresponding co-owned, concurrently filed U.S. application Ser. No. 09/543,955, both of which are incorporated herein by reference and Example 9 of U.S. Provisional Application Ser. No. 60/143,485 filed Jul. 12, 1999 and corresponding U.S. application Ser. No. 09/404,926 filed Sep. 24, 1999 and International Application No. PCT/US99/22361 filed Sep. 24, 1999, all of which are incorporated herein by reference.

E. coli O111:B4 [3] = test: Membrane potential indicator dye DiOC6(3) assay; assay type: cell-based
Procedure: as §2

whole cells [4] = test: Membrane potential indicator dye assay of whole cells (general description); assay type: cell-based; details: retention of the dye notwithstanding onset of loss of viability at the same concentration
Text: as §1

E. coli ATP synthase = details: bacterial membrane preparations; about ... and higher
Procedure: The effect of antibacterial BPI protein products on the ATP synthesis activity of an E. coli ATP synthase was determined as follows. Bacterial membranes were prepared as follows. A 400 mL culture of E. coli was grown overnight in TSB at 37° C. with shaking. Cells were harvested by centrifugation for 10 minutes at 1000×g, followed by washing with 20 mL of PBS and recentrifugation. Cells were resuspended in 4 ml of 25 mM HEPES, pH 7.6, 0.1 M KCl, 0.1 M EDTA, 12.5 mM MgCl2, 10% glycerol, 0.1% NP40. Then 50 μl of lysozyme (50 mg/ml) was added and the cells were incubated for 30 minutes on ice. Cells were disrupted by sonication in 3×30-second pulses. Cells were placed on ice between pulses. DNAse I was added to a 10 μg/mL final concentration (GIBCO Life Technologies, Gaithersburg, Md.) and the homogenate was left on ice for 30 minutes. […] The final pellet was resuspended in 2 mL 10 mM Tris-HC1, pH 7.0, 0.1 mM EDTA, 20% glycerol and protein concentration was determined by standard Bradford assay.
In a 96 well plate (Microlite 1, DYNEX Technologies, Chantilly Va.), 25 μg bacterial membranes were diluted into 100 μl of 55.5 mM Tris-HC1, pH 7.8, 0.222 mM MgSO4 plus the compound to be tested (XMP.391 (SEQ ID NO: 4) and rBPI21 at concentrations ranging from 40 μg/mL to 0.625 μg/mL). […] Assays were read in Endpoint mode with 30 reads per well.

[5] = target: T1, mammalian mitochondrial ATP synthase; test: Phosphatase activity of ATP synthase in mitochondrial membrane preparations (mouse liver); assay type: biochemical; details: 1.35 μM rBPI21, 0.082 and 0.482 μM XMP.391, 0.076 and 0.553 μM XMP.416
T1 construct: ATP synthase enzymic activity in mitochondrial preparations; from tissue; host or cells: mouse liver mitochondria, deoxycholate-lysed membrane pellet
Procedure: The effect of BPI protein products on ATP synthase enzymic activity in mitochondrial preparations was evaluated. Mitochondrial membrane preparations were prepared as follows. Male laboratory mice (Mus musculus) were sacrificed by cervical dislocation and their livers were immediately excised. The gall bladder and connective tissues were removed and the livers were washed in 0.25 M sucrose. Wet liver weight was determined after blotting the washed liver on absorbent paper. All subsequent steps of the fractionation procedure were performed on ice. The weighted livers were then homogenized with a Potter Elvehjem tissue homogenizer and six passes of a teflon pestle in 9 volumes of 0.25 M sucrose with protease inhibitors (2 μg/mL pepstatin A, 2 μg/mL aprotinin and 1 mM phenylmethylsulfonyl fluoride (PMSF). Liver homogenates were then centrifuged in a Beckman (Fullerton, Calif.) J2-21 centrifuge for 10 minutes at 600×g. The 600×g pellet (nuclei, unbroken cells and connective tissue) was discarded and the supernatant was subjected to further centrifugation. The 600×g supernatant was centrifuged at 7000×g for 10 minutes to yield a crude mitochondrial pellet.
Crude mitochondria were resuspended in 3 volumes of the original liver weight with 0.25 M sucrose and centrifuged at 7000×g for 10 minutes. The supernatant was discarded and the procedure was repeated. […]

bacterial growth = details: cited from earlier work

Question: For “XMP.365: BPI-derived peptide, SEQ ID NO: 3; structure described in U.S. Pat. No. 5,858,974 (KWLIQLFHKK)”, which “pattern of metabolic oxidation-reduction activity relative to control cells” value (whole cells [1]) is on record?
Answer: increased metabolic oxidation-reduction activity relative to control cells

Question: And the “in vitro bactericidal activity” value (E. coli O111:B4 [2])?
Answer: has in vitro bactericidal activity against this strain

Question: And the “apparent metabolic activity relative to untreated controls” value (E. coli)?
Answer: apparent increased metabolic activity

Question: And the “accumulation and retention of membrane potential dye” value (E. coli O111:B4 [3])?
Answer: produced an accumulation and retention of the dye despite cell death

Question: What about the “pattern of accumulation of membrane potential dye in cells” value (whole cells [4]) of the same substance?
Answer: accumulation in cells of membrane potential dye in a peptide concentration-dependent manner

Question: Which “pattern of metabolic oxidation-reduction activity relative to control cells” value (whole cells [1]) does the source give for “XMP.391: BPI-derived peptide, SEQ ID NO: 4 (KVGWLIQLFHKK)” here?
Answer: increased metabolic oxidation-reduction activity relative to control cells

Question: And the “apparent metabolic activity relative to untreated controls” value (E. coli)?
Answer: apparent increased metabolic activity

Question: What about the “concentration at which synthesis of ATP from ADP is inhibited in a dose-dependent manner” value (E. coli ATP synthase) of the same substance?
Answer: ≥ 1 µg/mL

Question: And the “inhibition of phosphatase activity of ATP synthase” value [5]?
Answer: inhibited the phosphatase activity

Question: With “XMP.416: BPI-derived peptide, SEQ ID NO: 5 (KWLIQLFHKK)” as the substance, how does the “pattern of metabolic oxidation-reduction activity relative to control cells” value (whole cells [1]) read?
Answer: increased metabolic oxidation-reduction activity relative to control cells

Question: And the “inhibition of phosphatase activity of ATP synthase” value [5]?
Answer: inhibited the phosphatase activity

Question: Which “concentration required to produce a therapeutic effect” value (bacterial growth) does the source give for gentamicin here?
Answer: 8 µg/mL
